Patent publication US5393738A (Sandoz, Ltd., priority 1986, dated 1995)
Where two headings read alike, the source gives them in different places.

Columns and labels:
[1] = Stability of SMS in gastric juices; type: in vitro ADME
[2] = Biopharmaceutical properties of SMS: first pass effect and excretion; type: in vivo; conditions: rat

With `C[C@@H](O)[C@@H]1NC(=O)[C@H](CCCCN)NC(=O)[C@@H](Cc2c[nH]c3ccccc23)NC(=O)[C@H](Cc2ccccc2)NC(=O)[C@@H](NC(=O)[C@H](N)Cc2ccccc2)CSSC[C@@H](C(=O)N[C@H](CO)[C@@H](C)O)NC1=O` [SMS, octreotide] as the compound, how does the “stability in gastric juices” value [1] read?
The value was “extremely stable”.

What about the dose excreted ([2]; bile, read-out: excreted as the unchanged drug in the bile) of the same compound?
The dose excreted was roughly 80%.

What about the dose excreted ([2]; urine, read-out: excreted as the unchanged drug in the urine) of the same compound?
The dose excreted was roughly 20%.
